The values below come from ChEMBL document CHEMBL1806423, “Cytotoxic 1,2-dialkynylimidazole-based aza-enediynes: aza-Bergman rearrangement rates do not predict cytotoxicity” (J Med Chem, 2011).

Active and inactive are the calls of the source. The rule behind the calls is not given here.

In one data set the test system is A549. Put plainly: Cytotoxicity against human A549 cells after 72 hrs by alamar blue assay. In kind it is functional, cell-based. The note with it: A549, 72 h.
The nature of data set [1]: Thermal stability of the compound assessed as half life at 110 degC. In kind it is physicochemical.
A further data set deals with Nucleic Acid. Put plainly: Induction of DNA cleavage of supercoiled phiX174 plasmid DNA assessed as relaxed DNA at 100 uM after 16 hrs by gel electrophoresis. Particulars: Enterobacteria phage phiX174. In kind it is nucleic-acid assay.
The target in a further data set is Albumin (Bos taurus, UniProt P02769). As to the kind of experiment: Induction of cleavage of bovine serum albumin at 500 uM after 16 hrs using Coomassie blue by SDS-PAGE. Particulars: cattle.
Sequence of Albumin (P02769 whole entry): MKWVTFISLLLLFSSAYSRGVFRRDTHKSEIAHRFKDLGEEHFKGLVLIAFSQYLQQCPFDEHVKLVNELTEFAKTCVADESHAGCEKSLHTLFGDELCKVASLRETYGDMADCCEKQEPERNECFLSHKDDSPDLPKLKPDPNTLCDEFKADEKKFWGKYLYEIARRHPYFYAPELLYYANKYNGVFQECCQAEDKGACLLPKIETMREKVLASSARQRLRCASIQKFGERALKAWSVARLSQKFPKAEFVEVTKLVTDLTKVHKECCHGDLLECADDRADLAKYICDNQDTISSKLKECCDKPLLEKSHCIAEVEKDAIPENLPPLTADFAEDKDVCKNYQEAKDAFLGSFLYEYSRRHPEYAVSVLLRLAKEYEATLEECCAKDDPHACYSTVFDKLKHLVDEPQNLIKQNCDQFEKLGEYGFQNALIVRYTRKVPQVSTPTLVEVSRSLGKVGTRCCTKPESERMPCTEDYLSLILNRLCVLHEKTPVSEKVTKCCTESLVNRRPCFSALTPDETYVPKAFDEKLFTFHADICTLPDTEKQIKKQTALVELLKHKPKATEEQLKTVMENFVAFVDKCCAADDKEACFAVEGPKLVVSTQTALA

In the data set on A549, `C#Cn1ccnc1C#Cc1ccc(OC)cc1` gave a concentration for half-maximal inhibition (IC50) of 500 nM. Also, in data set [1], the half-life is 17 h. Further, the result in the data set with Nucleic Acid was inactive. Moreover, the Activity result at Albumin is “Not Active”. Turning to `C(#Cn1ccnc1)c1ccccc1`, inhibition in the data set on A549 was half-maximal at 9200 nM (IC50). In the data set with A549, `C#Cn1ccnc1C#Cc1ccc([N+](=O)[O-])cc1` had an IC50 of 120 nM. Moreover, the half-life in data set [1] was 32 h. For the same compound, the outcome with Nucleic Acid was inactive. For the same compound, the Activity entry on Albumin is listed as “Not Active”. In the data set with A549, `C#Cc1nccn1C#Cc1ccccc1` registered a 50% inhibitory concentration (IC50) of 5000 nM. As to `C#Cn1cc(-c2ccc(F)cc2)nc1C#CCCO`, the half-inhibitory concentration (IC50) in the data set with A549 is 2600 nM. As for `C#Cc1nc(-c2ccc(F)cc2)cn1C#C`, the half-maximal inhibitory concentration (IC50) with A549 came to 2600 nM. Moreover, the result in the data set with Nucleic Acid was inactive. In addition, at Albumin, the Activity entry was “Not Active”.

For the compound `COc1ccc(C#Cc2nccn2C)cc1`, in the data set with A549, the concentration for half-maximal inhibition (IC50) is above 15000 nM.

For the compound `OCC#Cc1nccn1C#CCO`, the IC50 in the data set with A549 was 1900 nM. In the data set on A549, `C#Cn1ccnc1C#Cc1ccc(C(C)=O)cc1` gave an IC50 of 500 nM.

Consider `C#Cn1c(C#Cc2ccc(OC)cc2)nc2ccccc21`, for which the IC50 with A549 was found to be 2900 nM. The same measure, in the same setting: as for `COc1ccc(C#Cc2nccn2/C=C\Sc2ccccc2)cc1`, the figure is 10100 nM; as for `C#Cn1ccnc1C#CCOC`, 1000 nM. Consider `C#Cn1ccnc1C#Cc1ccc(C(C)(C)C)cc1`, for which, in the data set on A549, the concentration for half-maximal inhibition (IC50) worked out at 2500 nM. Moreover, in data set [1], the half-life is 16 h. Take `C#Cn1ccnc1C#Cc1ccccc1`: the half-maximal inhibitory concentration (IC50) in the data set on A549 is 6000 nM. In the case of `C#Cc1nc2ccccc2n1C#C`, the IC50 with A549 is 2000 nM. The same measure, in the same setting: to `C#Cn1ccnc1C#Cc1ccc(C(F)(F)F)cc1` belongs 6000 nM; to `C#Cn1cnc(-c2ccccc2)c1`, 1100 nM; to `C#Cn1cc(-c2ccccc2)nc1C#Cc1ccc(OC)cc1`, 2000 nM. Consider `C#Cn1ccnc1C#Cc1cc(C(F)(F)F)cc(C(F)(F)F)c1`, for which the half-inhibitory concentration (IC50) with A549 was found to be 2500 nM. As to `C#Cc1nc(-c2ccccc2)cn1C#C`, the concentration for half-maximal inhibition (IC50) in the data set with A549 worked out at 2500 nM. That is a single-digit micromolar value. For the compound `C(#Cn1ccnc1CCc1ccccc1)c1ccccc1`, in the data set on A549, the IC50 was above 15000 nM.
